According to patent US5354746A, “Squaric acid derivatives of substituted dibenzoxazepine compounds, pharmaceutical compositions and methods of use” (G. D. Searle & Co., priority 1993, dated 1994):
Counter-ions that a name gives are not always drawn.

Experiments:
mice = test: Writhing Assay (PBQ-induced writhing, analgesic activity in mice); type: in vivo, mouse (Charles River male albino mice); conditions: for WRITHING ASSAY Number Out of Ten (number of mice out of ten in which a test compound produced analgesia): 30 mg per kilogram i.g., 30 min before PBQ i.p., writhes <= one-half median of saline control
From the text: The Writhing Assay is one of the most widely-used experimental procedures for measuring the analgesic activity of different narcotic and nonnarcotic analgesic agents, and involves the continuous, chemically-induced pain of visceral origin to an animal, such as a mouse or rat. [Gyires et al., Arch. int. Pharmacodyn, 267, 131-140 (1984); […] al., Fed. Proc., 15, 494 (1956); Koster et al., Fed. Proc., 18, 412 (1959); and Witken et al., J. Pharmacol. exp. Ther., 133, 400-408 (1961).] Chemicals which may be used to induce this pain include phenylbenzoquinone (PBQ) and acetic acid. As a result of the chemical irritation to the animal, a characteristic stretching and writhing of the animal (dorsiflexion of the animal's back, extension of its hindlimbs and the strong contraction of its abdominal musculature) will generally occur. […] Drugs which reduce the number of writhes of the animal appear to restore the normal nociceptive threshold of the animal. […] Charles River male albino mice, weighing 20 to 30 grams, were used in this assay. Thirty minutes after intragastric administration to ten mice of 30 mg per kilogram of body weight of a compound of the present invention ("test compound"), […] of body weight of a 0.025% w/v solution of PBQ was injected intraperitoneally into each mouse. Ten mice which were given saline in place of a test compound of the invention were used as a control group. Five minutes later, each mouse was individually placed into a glass beaker for observation, and the number of writhes occurring during the following ten-minute period was counted. A test compound was considered to have produced analgesia in a mouse if, in accordance with the conditions set forth above, and under the test criteria employed for this assay, after the administration of 30 mg per kilogram of body weight of a compound of the present invention to the mouse, the number of writhes elicited by a mouse injected with PBQ was equal to, or less than, one-half the median number of writhes recorded for the saline-treated control group of mice that day, as described by Taber in "Predictive Value of Analgesic Assays in Mice and Rats," Advances in Biochemical Psychopharmacology, 8, 191 (1974). The results for the particular compounds of the present invention analyzed in this assay, and discussed in the examples identified below which correspond thereto, are presented in Table 1 hereinbelow as fractions under the heading "WRITHING ASSAY." The fractions indicate the number of mice out of ten in which a test compound produced analgesia. The standard initial screening dose of a test compound employed in this assay was […]. If this initial screening dose of the test compound produced analgesia in seven out of ten mice, then the effect of additional doses of the test compound on the writhing response was evaluated, and then the ED50 dose was generally calculated. (The slopes of the dose-response curves for all test compounds analyzed were compared as described by Tallarida and Murray, Manual of Pharmacologic Calculations, Page 11 (Springer Verlag, New York, 1981)). All ED50 doses calculated are also presented in Table 1 hereinbelow under the heading "WRITHING ASSAY," but as whole numbers.

[1] = tested on: prostaglandin E2-induced contractions of segments of guinea pig ileum; test: Prostaglandin (PGE) Antagonism Assay (inhibition of prostaglandin E2-induced contractions of guinea pig ileum segments); conditions: ratio of prostaglandin E2 EC50 with/without test compound; initial concentration 3 micromolar; 30 min incubation; 37° C.; active if dose ratio >= 2
Experimental: In order to determine the effectiveness of several of the compounds of the present invention ("test compounds") as prostaglandin E2 antagonists,a prostaglandin antagonism assay was conducted, as described below, to determine the ability of these compounds to inhibit prostaglandin E2 -induced contractions of segments of guinea pig ileum. […] Male albino guinea pigs weighing 200 to 500 grams were sacrificed by cervical dislocation. The ilea were then quickly removed from the guinea pigs and placed in a modified Tyrode solution, a solution which is known to those skilled in the art, containing one-half of the usual amount of magnesium ions. Segments of ileum about 2 cm long were then cut and mounted in a 10 mL tissue bath containing the modified Tyrode solution. The solution was maintained at 37° C. and aerated with a gaseous mixture of 95% oxygen and 5% carbon dioxide. Data for a control prostaglandin E2 dose response curve plotting concentration of prostaglandin E2 versus the intensity of contractions, detected isotonically, was then obtained by experimentally adjusting the dose of the prostaglandin E2 being injected into the tissue bath, in a manner known by those of skill in the art. Solutions or suspensions containing an initial concentration (3 micromolar) of a test compound in modified Tyrode solution ("test solutions/suspensions") were then separately substituted for the control bath solution. Each test solution/suspension was then kept in constant contact with the ileum tissue, except for brief periods to drain the bath in preparation for rinsing with fresh test solution/suspension. A second prostaglandin E2 dose response curve was then generated for prostaglandin E2 in the presence of a test compound. A control dose response curve is produced in isolated segments of guinea pig ileum mounted in an automated apparatus with six concentrations of prostaglandin E2. A solution or suspension of test compound is substituted for the control bathing solution and is incubated for thirty minutes. An additional prostaglandin E2 dose response curve is then performed in the presence of the test compound. A dose ratio is calculated from the EC50 values obtained from duplicate replications on each concentration of the test compound. […] A dose ratio of EC50 doses was calculated from the results of each test in a manner known by those of skill in the art, and described above. A test compound was determined to be "active" if the initial concentration used yielded at least a two-fold shift (dose ratio greater than or equal to 2) in the dose response curve for prostaglandin E2. The compounds of the present invention which were tested in this assay, and for which results are presented in Table 1, correspond to the particular examples specified in Table 1.

In the case of Cl.O=c1c(NCc2ccncc2)c(N2Cc3ccccc3Oc3ccc(Cl)cc32)c1=O [Example 7, 3-(8-Chlorodibenz[b,f][1,4]oxazepin-10(11H)-yl)-4-[(4-pyridinylmethyl)amino]-3-cyclobutene-1,2-dione, hydrochloride], the ED50 (mice; Mus musculus, po, intragastric, PBQ i.p., dose producing analgesia in 50% of the animals, read-out: WRITHING ASSAY ED50 Dose I.G.) is reported as 9.7 mg/kg and the “PGE ANTAGONISM IN GUINEA PIG ILEUM Dose Ratio” value [1] is reported as 22 ± 5.
For CCN1CCN(c2c(N3Cc4ccccc4Oc4ccc(Cl)cc43)c(=O)c2=O)CC1 [Example 2, 3-(8-Chlorodibenz[b,f][1,4]oxazepin-10(! ! H)-yl)-4-(4-ethyl-1-piperazinyl)-3-cyclobutene-1,2-dione, monohydrochloride], the “WRITHING ASSAY Number Out of Ten (number of mice out of ten in which a test compound produced analgesia)” value (“WRITHING ASSAY Number Out of Ten” below) (mice) was 6/10 and the “PGE ANTAGONISM IN GUINEA PIG ILEUM Dose Ratio” value [1] was 5.0 ± 2.6.
For CCOC(=O)C1CN(c2c(N3Cc4ccccc4Oc4ccc(Cl)cc43)c(=O)c2=O)CCN1c1ccccc1 (stereo not drawn) [Example 4, Ethyl 4-[2-(8-chlorodibenz[b,f][1,4]oxazepin-10(11H)-yl)-3,4-dioxo-1-cyclobuten-1-yl]-1-phenyl-2-piperazinecarboxylate], the “WRITHING ASSAY Number Out of Ten” value (mice) was 4/10.
CN(C)CCNc1c(N2Cc3ccccc3Oc3ccc(Cl)cc32)c(=O)c1=O.Cl [Example 6, 3-(8-Chlorodibenz[b,f][1,4]oxazepin-10(11H)-yl)-4-[[2-(dimethylamino)ethyl]amino]-3-cyclobutene-1,2-dione, hydrochloride] was tested, and the “WRITHING ASSAY Number Out of Ten” value (mice) was 6/10 and the “PGE ANTAGONISM IN GUINEA PIG ILEUM Dose Ratio” value [1] was 6.8 ± 4.5.
In the case of O=c1c(N2Cc3ccccc3Oc3ccc(Cl)cc32)c(N2Cc3ccccc3Oc3ccc(Cl)cc32)c1=O [Example 8, 3,4-bis[8-chlorodibenz[b,f][1,4]oxazepin-10(11H) -yl]-3-cyclobutene-1,2-dione], the “WRITHING ASSAY Number Out of Ten” value (mice) is reported as 6/10 and the “PGE ANTAGONISM IN GUINEA PIG ILEUM Dose Ratio” value [1] is reported as 1.9 ± 0.9.
